Test results from US4605744A, “Imidazole derivatives” (Hoffmann-La Roche Inc., priority 1985, dated 1986).
Where a name gives a salt, the structure may show the parent alone. Read-outs that look alike come from different tables or passages of the source.

Columns and labels:
Test in all cases: In vitro antibacterial activity (MIC)
Type in all cases: cell-based
C. diversus CDC 1663-72 = conditions: Citrobacter koseri, CDC166372
Method: (§1) Drug dilutions are prepared in Mueller-Hinton broth ranging from 128 to 0.008 μg/ml. The diluted agents are dispensed in 100 μl amounts into the wells of a 96-well tray and used immediately or frozen at -10° to -70° C. until needed. Using an automated inoculator, 1.5 μl of a 10^-2 dilution of an overnight culture is added to each well of the tray. The tops of the trays are then sealed using transparent tape and incubated overnight at 37° C. The trays are examined with the aid of a viewer. The lowest concentration at which no growth is observed is considered to be the minimum inhibitory concentration (MIC).

C. freundii 8ASM = conditions: Citrobacter freundii, 8ASM
Method: as §1

C. freundii CDC6 = conditions: Citrobacter freundii, CDC6, C. freundii CDC6; read-out: MIC
Method: as §1

E. aerogenes 503-478 = conditions: Klebsiella aerogenes, 503478, E. aerogenes 503-478; read-out: MIC
Method: as §1

E. cloacae 214 = conditions: Enterobacter cloacae, 214, E. cloacae 214; read-out: MIC
Method: as §1

E. cloacae 5699 = conditions: Enterobacter cloacae, 5699, E. cloacae 5699; read-out: MIC
Method: as §1

E. cloacae 6951 = system: E. cloacae 6951
Method: as §1

E. cloacae 9295 = system: E. cloacae 9295
Method: as §1

E. cloacae 9570A = conditions: Enterobacter cloacae
Method: as §1

E. cloacae P99 = conditions: Enterobacter cloacae, P99, E. cloacae P99
Method: as §1

E. coli 48 = conditions: Escherichia coli, 48, E. coli 48; read-out: MIC
Method: as §1

E. coli 5152 = system: E. coli 5152
Method: as §1

E. coli R-563 = conditions: Escherichia coli, R563, E. coli R-563; read-out: MIC
Method: as §1

K. pneumoniae 35 = system: K. pneumoniae 35
Method: as §1

K. pneumoniae 503-964 = system: K. pneumoniae 503-964
Method: as §1

K. pneumoniae 503-994 = conditions: Klebsiella pneumoniae, 503994, K. pneumoniae 503-994; read-out: MIC
Method: as §1

K. pneumoniae 5096 = conditions: Klebsiella pneumoniae; K. pneumoniae 5096; read-out: MIC
Method: as §1

K. pneumoniae 8357 = system: K. pneumoniae 8357
Method: as §1

K. pneumoniae HE7 = conditions: Klebsiella pneumoniae; K. pneumoniae HE7; read-out: MIC
Method: as §1

P. aeruginosa 503-56 = conditions: Pseudomonas aeruginosa, 50356, P. aeruginosa 503-56; read-out: MIC
Method: as §1

P. aeruginosa 5700 = conditions: Pseudomonas aeruginosa, 5700, P. aeruginosa 5700; read-out: MIC
Method: as §1

P. aeruginosa 5712 = conditions: Pseudomonas aeruginosa; P. aeruginosa 5712; read-out: MIC
Method: as §1

P. aeruginosa 6148B = conditions: Pseudomonas aeruginosa, read-out: MIC
Method: as §1

P. aeruginosa B = conditions: Pseudomonas aeruginosa, read-out: MIC
Method: as §1

P. aeruginosa POW 151 = conditions: Pseudomonas aeruginosa, POW151
Method: as §1

P. aeruginosa Stone 130 = conditions: Pseudomonas aeruginosa, STONE130, read-out: MIC
Method: as §1

P. mirabilis 2 = system: P. mirabilis 2
Method: as §1

P. mirabilis 620A = conditions: Proteus mirabilis, 620A, P. mirabilis 620A; read-out: MIC
Method: as §1

P. rettgeri ATCC 9250 = conditions: Providencia rettgeri, ATCC9250, P. rettgeri ATCC 9250; read-out: MIC
Method: as §1

P. vulgaris 100 = conditions: Proteus vulgaris
Method: as §1

P. vulgaris ATCC 6380 = conditions: Proteus vulgaris, ATCC6380, P. vulgaris ATCC 6380; read-out: MIC
Method: as §1

S. aureus Smith = conditions: Staphylococcus aureus, S. aureus Smith; read-out: MIC
Method: as §1

S. faecalis C1 = conditions: Enterococcus faecalis; S. faecalis C1; read-out: MIC
Method: as §1

S. marcescens 5805 = conditions: Serratia marcescens, 5805, S. marcescens 5805; read-out: MIC
Method: as §1

S. marcescens S147 = conditions: Serratia marcescens; S. marcescens S147; read-out: MIC
Method: as §1

S. marcescens S2 = conditions: Serratia marcescens; S. marcescens S2; read-out: MIC
Method: as §1

S. marcescens S3 = conditions: Serratia marcescens; S. marcescens S3; read-out: MIC
Method: as §1

S. marcescens S5 = conditions: Serratia marcescens, S5, S. marcescens S5; read-out: MIC
Method: as §1

S. marcescens SM = conditions: Serratia marcescens, read-out: MIC
Method: as §1

S. pneumoniae 6301 = conditions: Streptococcus pneumoniae, 6301, S. pneumoniae 6301; read-out: MIC
Method: as §1

S. pneumoniae 6302 = conditions: Streptococcus pneumoniae, 6302, S. pneumoniae 6302; read-out: MIC
Method: as §1

S. pneumoniae SC = conditions: Streptococcus pneumoniae, read-out: MIC
Method: as §1

S. pyogenes 503-782 = conditions: Streptococcus pyogenes, 503782; S. pyogenes 503-782; read-out: MIC
Method: as §1

S. typhi P58A = conditions: Salmonella enterica, TYPHI
Method: as §1

[1] = Enterobacter cloacae, 6951, E. cloacae 6951, read-out: MIC
[2] = Enterobacter cloacae, 9295, E. cloacae 9295, read-out: MIC
[3] = Klebsiella pneumoniae, 503964, K. pneumoniae 503-964, read-out: MIC
[4] = Proteus mirabilis, 2, P. mirabilis 2, read-out: MIC
[5] = C. diversus CDC 1663-72, read-out: MIC
[6] = C. freundii 8ASM, read-out: MIC
[7] = Escherichia coli, 5152, E. coli 5152, read-out: MIC
[8] = Klebsiella pneumoniae, K. pneumoniae 35, read-out: MIC

Measured: MIC

CCc1nc(C)cn1CCCC1CCN(C=N[C@@H]2C(=O)N3[C@@H]2SC(C)(C)[C@@H]3C(=O)O)CC1 [G, [2S-(2alpha,5alpha,6beta)]-6-[[[4-[3-(2-ethyl-4methyl-1H-imidazol-1-yl)propyl]piperidinyl]methylene]amino]-3,3-dimethyl-7-oxo-4-thia-1-azabicyclo[3.2.0]heptane-2-carboxylic acid hydrochloride]
8 µg/mL: E. aerogenes 503-478 | S. aureus Smith
64 µg/mL: P. mirabilis 620A
0.062 µg/mL: E. coli 48 | K. pneumoniae 503-964; [3]
1 µg/mL: K. pneumoniae 8357; Klebsiella pneumoniae, 8357 | P. aeruginosa 5700 | P. mirabilis 2; [4] | P. rettgeri ATCC 9250 | S. marcescens S147 | S. marcescens S2 | S. marcescens S3 | S. marcescens SM | S. pneumoniae 6301 | S. pneumoniae SC
4 µg/mL: S. marcescens 5805
32 µg/mL: P. vulgaris 100; 100
0.5 µg/mL: E. cloacae 5699 | E. cloacae 9295; [2] | E. cloacae 9570A; read-out: MIC | E. cloacae P99 | K. pneumoniae 35; Klebsiella pneumoniae, 35, K. pneumoniae 35
128 µg/mL: K. pneumoniae 5096 | S. faecalis C1 | S. pyogenes 503-782
2 µg/mL: S. marcescens S5 | S. pneumoniae 6302
0.125 µg/mL: C. diversus CDC 1663-72 | C. freundii 8ASM
16 µg/mL: E. cloacae 6951; [1] | E. coli 5152; Escherichia coli, 5152
0.25 µg/mL: C. freundii CDC6 | E. cloacae 214 | E. coli R-563 | K. pneumoniae 503-994 | P. aeruginosa B | P. vulgaris ATCC 6380 | S. typhi P58A
> 128 µg/mL: K. pneumoniae HE7 | P. aeruginosa 503-56 | P. aeruginosa 5712 | P. aeruginosa 6148B | P. aeruginosa POW 151 | P. aeruginosa Stone 130

Cc1nccn1CCCC1CCN(C=N[C@@H]2C(=O)N3[C@@H]2SC(C)(C)[C@@H]3C(=O)O)CC1 [F, [2S-(2alpha,5alpha,6beta)]-3,3-dimethyl-6-[[[4-[3-(2-methyl-1H-imidazol-1-yl)propyl]-1-piperidinyl]methylene]amino]-7-oxo-4-thia-1-azabicyclo[3.2.0]heptane-2-carboxylic acid 1.15 molar hydrochloride 1.75 molar hydrate]
0.062 µg/mL: C. diversus CDC 1663-72; [5] | C. freundii 8ASM; [6] | C. freundii CDC6 | E. coli 48 | E. coli R-563 | S. typhi P58A
4 µg/mL: E. aerogenes 503-478 | K. pneumoniae 503-964; Klebsiella pneumoniae, 503964, K. pneumoniae 503-964
> 128 µg/mL: K. pneumoniae HE7 | P. aeruginosa 503-56 | P. aeruginosa 5712 | P. aeruginosa 6148B | P. aeruginosa POW 151 | P. aeruginosa Stone 130
8 µg/mL: E. cloacae 6951; [1] | E. coli 5152; [7] | S. aureus Smith
0.25 µg/mL: E. cloacae 5699 | E. cloacae 9295; [2] | E. cloacae 9570A; 9570A | P. aeruginosa B | P. rettgeri ATCC 9250 | P. vulgaris ATCC 6380 | S. marcescens S147 | S. marcescens S2 | S. marcescens S3
0.5 µg/mL: P. aeruginosa 5700 | P. mirabilis 2; Proteus mirabilis, 2 | S. marcescens 5805
0.125 µg/mL: E. cloacae 214 | E. cloacae P99 | K. pneumoniae 35; [8] | S. marcescens SM
64 µg/mL: K. pneumoniae 5096
2 µg/mL: K. pneumoniae 503-994 | S. pneumoniae 6302
1 µg/mL: K. pneumoniae 8357; Klebsiella pneumoniae, 8357 | S. marcescens S5 | S. pneumoniae 6301 | S. pneumoniae SC
128 µg/mL: S. faecalis C1 | S. pyogenes 503-782
16 µg/mL: P. mirabilis 620A | P. vulgaris 100; P. vulgaris 100, read-out: MIC

CC1(C)S[C@@H]2[C@H](N=CN3CCC(Cn4ccnc4N)CC3)C(=O)N2[C@H]1C(=O)O [H, [2S-(2alpha,5alpha,6beta)]-6-[[[4-[(2-amino-1H-imidazol-1-yl)methyl-1-piperidinyl]methylene]amino]-3,3-dimethyl-7-oxo-4-thia-1-azabicyclo[3.2.0]heptane-2-carboxylic acid hydrochloride]
0.5 µg/mL: E. cloacae 9295; Enterobacter cloacae, 9295 | P. aeruginosa B | S. marcescens 5805 | S. marcescens S5
> 128 µg/mL: P. aeruginosa POW 151 | P. aeruginosa Stone 130
0.25 µg/mL: E. cloacae 5699 | E. cloacae 9570A; read-out: MIC | K. pneumoniae 35; [8] | P. mirabilis 2; [4] | P. rettgeri ATCC 9250
64 µg/mL: K. pneumoniae 5096 | P. aeruginosa 6148B | S. faecalis C1 | S. pyogenes 503-782
4 µg/mL: E. cloacae 6951; Enterobacter cloacae, 6951 | P. vulgaris 100; P. vulgaris 100, read-out: MIC
16 µg/mL: P. mirabilis 620A
8 µg/mL: E. aerogenes 503-478 | E. coli 5152; [7] | S. aureus Smith
0.031 µg/mL: C. freundii 8ASM; [6] | S. marcescens S147
0.062 µg/mL: C. diversus CDC 1663-72; [5] | C. freundii CDC6 | E. cloacae P99 | E. coli 48 | E. coli R-563 | P. vulgaris ATCC 6380 | S. marcescens S2 | S. typhi P58A
32 µg/mL: P. aeruginosa 503-56
128 µg/mL: K. pneumoniae HE7 | P. aeruginosa 5712
1 µg/mL: S. pneumoniae 6301 | S. pneumoniae 6302 | S. pneumoniae SC
0.125 µg/mL: E. cloacae 214 | K. pneumoniae 503-964; [3] | K. pneumoniae 503-994 | K. pneumoniae 8357; Klebsiella pneumoniae, 8357, K. pneumoniae 8357, read-out: MIC | P. aeruginosa 5700 | S. marcescens S3 | S. marcescens SM
